pKi: −log10 of the molar value.
Biological target: T1, prostacyclin (IP) receptor (Homo sapiens, UniProt P43119)
T1 construct: gene PTGIR; human IP receptor cDNA expressed in COS-1 cells
Assay: [3H]-iloprost competition radioligand binding on transfected COS-1 cells (also cAMP EC50 […])
Format: cell-based

T1 sequence (P43119 1-383): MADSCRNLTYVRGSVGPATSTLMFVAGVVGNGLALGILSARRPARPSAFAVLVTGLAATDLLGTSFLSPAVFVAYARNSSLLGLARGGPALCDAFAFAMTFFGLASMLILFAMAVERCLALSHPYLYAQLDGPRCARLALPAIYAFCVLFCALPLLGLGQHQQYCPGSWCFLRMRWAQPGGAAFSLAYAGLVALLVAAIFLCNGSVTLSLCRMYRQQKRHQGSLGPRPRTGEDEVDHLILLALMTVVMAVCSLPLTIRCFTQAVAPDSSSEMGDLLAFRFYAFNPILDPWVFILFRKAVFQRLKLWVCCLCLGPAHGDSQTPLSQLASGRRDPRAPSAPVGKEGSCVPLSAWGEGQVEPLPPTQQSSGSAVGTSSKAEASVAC

pKi: 6.18
SMILES: C[C@H](O)CCC/C=C\C/C=C\C/C=C\C/C=C\CCCC(=O)O [19(S)-HETE, 19(S)-hydroxy-5Z,8Z,11Z,14Z-eicosatetraenoic acid]
